From patent EP0453119A1, “Modified beta adrenergic receptor” (MERCK & CO. INC., priority 1990, dated 1991)

Each molecule was assayed against T1, Wild-type βAR (Mesocricetus auratus, UniProt P04274) (assay: Adenylyl cyclase stimulation in membranes of mouse L cells expressing the wild-type receptor). Details: not given.
T1 construct: pSVHAC contains the full length hamster ß₂AR cDNA cloned into the EcoRI site of pSVL; expressed in transfected cells; host or cells: mouse L cells (clonal lines, membranes)
Type: biochemical, hamster
Experimental: (§1) Expression in mammalian cells. For the establishment of clonal cell lines expressing mutant receptors, the plasmid DNAs were transfected into mouse L cells by the CaPO₄ procedure. […] The precipitate was added to the media covering subconfluent monolayers of mouse L cells in 100 mm petri dishes and incubated at 37°C for 4 hrs. The media was removed and the cells were washed once with Dulbecco's modified minimal essential medium (DMEM). […] DMEM containing 10% fetal bovine serum was then added to the monolayers and the cells were incubated at 37°C for 12-18 hrs. The medium was changed to DMEM containing 10% fetal bovine serum and […] genticin to select for cells containing the expression vector. […] Individual colonies were isolated and expanded into cell lines.
(§2) Membranes were prepared from L cell monolayers by hypotonic lysis in 10 mM Tris, pH 7.5 for 10 min at 4°C.
(§3) The reaction was allowed to proceed for 30 min at 30°C before it was quenched at 4°C with an excess of unlabeled ATP. The ³²P-cAMP produced was determined by Dowex and alumina chromatography, as described by Salomon et al., supra.
Data Analysis. […] The Michaelis-Menton equation was used: V=Vmax[A]/Kact+[A], where V is the level of cyclase stimulation (in pmol ³²P-cAMP/mg protein/min) measured at a given agonist concentration [A], and Vmax is the calculated maximal stimulation at infinite agonist concentration.

T1 sequence (P04274 whole entry): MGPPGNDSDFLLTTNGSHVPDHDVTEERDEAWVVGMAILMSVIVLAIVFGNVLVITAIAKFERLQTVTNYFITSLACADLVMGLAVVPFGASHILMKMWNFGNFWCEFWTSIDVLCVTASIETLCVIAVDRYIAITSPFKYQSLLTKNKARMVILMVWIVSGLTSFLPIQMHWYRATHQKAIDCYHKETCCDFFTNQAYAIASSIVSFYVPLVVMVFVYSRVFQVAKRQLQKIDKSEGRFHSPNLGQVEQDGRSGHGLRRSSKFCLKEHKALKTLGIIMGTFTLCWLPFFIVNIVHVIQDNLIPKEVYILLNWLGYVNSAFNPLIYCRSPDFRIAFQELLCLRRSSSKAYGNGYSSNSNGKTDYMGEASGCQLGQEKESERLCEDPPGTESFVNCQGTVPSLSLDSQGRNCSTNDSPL

Row | Compound | EC50 [nM]
1 | CNC[C@H](O)c1ccc(O)c(O)c1 [Compound 2, epinephrine] | 300

Each molecule was assayed against T2, [Ser^113]βAR (Mesocricetus auratus, UniProt P04274, D113S) (assay: Adenylyl cyclase stimulation in membranes of mouse L cells expressing the mutant receptor). Details: result in words, acids compared with the corresponding esters.
T2 construct: pSVHAC contains the full length hamster ß₂AR cDNA cloned into the EcoRI site of pSVL; expressed in transfected cells; host or cells: mouse L cells (clonal lines, membranes)
Type: biochemical, hamster
Experimental: Mutagenesis of the ßAR gene. […] Other standard cloning techniques were performed as described by the former Manual and would be easily reproduced by anyone trained in molecular biology. An oligonucleotide 19 nucleotides in length complementary to the phage DNA surrounding the codon for Asp¹¹³ were synthesized using an Applied Biosystems Model 3A DNA synthesizer. The oligonucleotide contained mismatched positions in order to convert the codon for Asp¹¹³ (GAT) to Ser ([…]). The oligonucleotide was annealed to the phage DNA for priming and extended using Klenow DNA polymerase and T4 DNA ligase. […] The ßAR gene in this vector utilizes the SV40 early promoter, the modified splice signal, and the ßAR polyadenylation site for expression. The ligated mixture was transformed into E. coli strain DH5 (Bethesda Research Laboratories) and ampicillin resistant colonies were screened by filter hybridization using the oligonucleotide corresponding to the mutation as the hybridization probe. Plasmids were isolated from several hybridization positive colonies and mapped to insure the proper DNA insert was contained in the clone. The mutations were resolved by retransformation of the plasmid DNA into E. coli. Mutant plasmid containing colonies were again isolated by filter hybridization as above. Plasmid DNA was isolated from overnight cultures of cells by alkaline lysis and twice banding in CsCl-ethidium bromide equilibrium density gradients. […] The purity of the plasmid preparation was tested by retransformation of the DNA into E. coli followed by colony hybridization. […] Plasmid DNA was isolated as above and confirmed by restriction mapping.
as §1, §2, §3
Data Analysis. Activation constant (Kact) values for adenylyl cyclase stimulation were obtained by computer assisted nonlinear regression analysis of curves generated in the presence of increasing concentrations of compounds. The Michaelis-Menton equation was used: V=Vmax[A]/Kact+[A], where V is the level of cyclase stimulation (in pmol ³²P-cAMP/mg protein/min) measured at a given agonist concentration [A], and Vmax is the calculated maximal stimulation at infinite agonist concentration.

T2 sequence (P04274 whole entry D113S): as the sequence (P04274 whole entry) above, with D113S counted along it

Row | Compound | activation of [Ser¹¹³]ßAR
2 | COC(=O)/C=C/c1ccc(O)c(O)c1 [Compound 7] | activated
3 | O=C(O)CCc1ccc(O)c(O)c1 [Compound 6] | less effective
4 | O=C(O)/C=C/c1ccc(O)c(O)c1 [Compound 8] | less effective
5 | CCOC(=O)CCc1ccc(O)c(O)c1 [Compound 5] | activated

The next lines start with the values.

Row | activation of [Ser¹¹³]ßAR | Compound
6 | activated | CCOC(=O)Cc1ccc(O)c(O)c1 [Compound 11]
7 | activated | CCOC(=O)CC(O)c1ccc(O)c(O)c1 (centres unmarked) [Compound 13]
8 | activated | CCOC(=O)C(=O)Cc1ccc(O)c(O)c1 [Compound 9]
9 | less effective | O=C(O)C(=O)Cc1ccc(O)c(O)c1 [Compound 10]
10 | weakly | CCOC(=O)C(O)c1ccc(O)c(O)c1 (centres unmarked) [Compound 12]

The molecules below were run against T3, [Ser¹¹³]ßAR (Mesocricetus auratus, UniProt P04274, D113S) (assay: not given). Details: COS-7 cell membranes; equilibrium binding.
T3 construct: pSVHAC contains the full length hamster ß₂AR cDNA cloned into the EcoRI site of pSVL; expressed in transfected cells; host or cells: COS-7 cells (membranes)
Parameters: species or system hamster
Experimental: Membrane Preparation. COS-7 cell monolayers were washed 3 times in PBS, scraped from the flask with a rubber policeman, and centrifuged at 2000 x g for 5 min. The cell pellet was resuspended in 75 mM Tris, pH 7.4, 12.5 mM MgCl₂, […] EDTA (TME buffer) at a concentration of 10⁸ cells/ml, then diluted 1:5 with water and lysed by freezing in liquid N₂ and thawing with vigorous vortexing. Nuclei were removed by centrifugation over a cushion of 60% sucrose at 2500 x g for 15 min. The upper layer was collected, membranes pelleted by centrifugation at 40,000 x g for 15 min,and resuspended in TME at a protein concentration of 1-2 mg/ml.
Receptor Assays. ¹²⁵I-CYP binding to membranes was measured in a final volume of 250 ul of TME buffer, containing […] of membrane protein and 225 pM ¹²⁵I-CYP for 90 min at 23°C, as previously described Dixon et al. (1987), supra. Membranes were collected by filtration on GF/C glass fiber filters and bound ¹²⁵I-CYP was detected with a gamma counter. Nonspecific binding, measured in the presence of […] alprenolol, was subtracted from the total binding.

T3 sequence (P04274 whole entry D113S): as the sequence (P04274 whole entry) above, with D113S counted along it

Row | Compound | ¹²⁵I-CYP binding
11 | CC(C)(C)NCC(O)COc1cccc2[nH]c(C#N)c([125I])c12 (centres unmarked) [¹²⁵I-CYP, ¹²⁵I-cyanopindolol] | did not bind detectable levels
